Assay results taken from US12180207B2 (ARRAY BIOPHARMA INC., priority 2018, dated 2024).
pIC50: −log10 of the molar value.

Biological target: dephosphorylated FGFR2 (Homo sapiens (Human), UniProt P21802)
Assay: FGFR enzyme binding assay (HTRF tracer displacement), FGFR2
Settings: 5 nM dephosphorylated FGFR2, average of multiple determinations if made
Experimental: The potency of compounds inhibiting human isoforms of FGFR kinase was determined using Life Technologies' Homogeneous Time Resolved Fluorescence (HTRF)-based binding assay technology. […] After a 60 minute incubation at 22° C., the extent of tracer displacement was determined using a PerkinElmer EnVision multimode plate reader via HTRF dual wavelength detection, and the percent of control (POC) was calculated using a ratiometric emission factor. One hundred POC was determined using no test compound, and 0 POC was determined in the presence of 1 μM of an appropriate control inhibitor.

dephosphorylated FGFR2, sequence (P21802 22-821): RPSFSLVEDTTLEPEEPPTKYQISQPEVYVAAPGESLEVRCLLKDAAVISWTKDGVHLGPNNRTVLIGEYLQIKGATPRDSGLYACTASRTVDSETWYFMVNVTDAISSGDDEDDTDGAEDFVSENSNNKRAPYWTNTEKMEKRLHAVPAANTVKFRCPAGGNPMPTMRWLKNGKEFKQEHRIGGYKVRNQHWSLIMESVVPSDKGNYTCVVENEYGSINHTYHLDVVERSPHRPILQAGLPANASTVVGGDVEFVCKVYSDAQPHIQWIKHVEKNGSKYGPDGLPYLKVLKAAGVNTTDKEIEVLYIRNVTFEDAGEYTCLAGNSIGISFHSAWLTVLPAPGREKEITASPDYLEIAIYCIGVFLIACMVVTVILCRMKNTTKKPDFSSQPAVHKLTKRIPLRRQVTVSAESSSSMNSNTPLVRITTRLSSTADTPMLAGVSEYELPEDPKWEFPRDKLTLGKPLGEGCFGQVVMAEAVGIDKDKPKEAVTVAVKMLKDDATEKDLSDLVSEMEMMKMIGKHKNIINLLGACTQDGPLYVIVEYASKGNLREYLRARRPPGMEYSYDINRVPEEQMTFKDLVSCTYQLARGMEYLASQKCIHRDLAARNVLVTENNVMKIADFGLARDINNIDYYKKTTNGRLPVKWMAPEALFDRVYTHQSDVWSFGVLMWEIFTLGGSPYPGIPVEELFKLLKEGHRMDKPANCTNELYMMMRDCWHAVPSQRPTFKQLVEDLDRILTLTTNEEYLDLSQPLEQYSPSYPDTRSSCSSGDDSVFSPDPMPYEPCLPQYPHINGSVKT

| pIC50 | Structure (SMILES) |
| --- | --- |
| 7.55 | C=CC(=O)N1CC(CN2C[C@H]3C[C@@H]2CN3c2ccc(-c3cc(OC)c4c(C#N)cnn4c3)cn2)C1 [Example 108, 6-(6-((1R,4R)-5-((1-acryloylazetidin-3-yl)methyl)-2,5-diazabicyclo[2.2.1]heptan-2-yl)pyridin-3-yl)-4-methoxypyrazolo[1,5-a]pyridine-3-carbonitrile] |
| 7.29 | COc1cc(-c2cnn(C3CCN(C(=O)C4(F)CN(C(=O)/C=C/C(F)(F)F)C4)CC3)c2C)cn2ncc(C#N)c12 [Example 155, (E)-6-(1-(1-(3-fluoro-1-(4,4,4-trifluorobut-2-enoyl)azetidine-3-carbonyl)piperidin-4-yl)-5-methyl-1H-pyrazol-4-yl)-4-methoxypyrazolo [1,5-a]pyridine-3-carbonitrile] |
| 7.25 | C=CC(=O)N1CC(CN2CCC(n3ncc(-c4cc(OC)c5c(Cl)cnn5c4)c3C)CC2)C1 [Example 118, 1-(3-((4-(4-(3-chloro-4-methoxypyrazolo[1,5-a]pyridin-6-yl)-5-methyl-1H-pyrazol-1-yl)piperidin-1-yl)methyl)azetidin-1-yl)prop-2-en-1-one] |
| 7.35 | C=CC(=O)N1CC(C(=O)N2CC3(C2)CN(c2ccc(-c4cc(OC)c5c(C#N)cnn5c4)cn2)C3)C1 [Example 104, 6-(6-(6-(1-acryloylazetidine-3-carbonyl)-2,6-diazaspiro[3.3]heptan-2-yl)pyridin-3-yl)-4-methoxypyrazolo[1,5-a]pyridine-3-carbonitrile] |
| 6.90 | C=CC(=O)N1CC(O)(C(=O)N2CCC(n3ncc(-c4cc(OC)c5c(Cl)cnn5c4)c3C)CC2)C1 [Example 172, 1-(3-(4-(4-(3-chloro-4-methoxypyrazolo [1,5-a]pyridin-6-yl)-5-methyl-1H-pyrazol-1-yl)piperidine-1-carbonyl)-3-hydroxyazetidin-1-yl)prop-2-en-1-one] |
| 7.72 | COc1cc(-c2cnn(C3CCN(C(=O)C4CN(C(=O)/C=C/CN5CC[C@@H](F)C5)C4)CC3)c2)cn2ncc(C#N)c12 [Example 183, (R,E)-6-(1-(1-(1-(4-(3-fluoropyrrolidin-1-yl)but-2-enoyl)azetidine-3-carbonyl)piperidin-4-yl)-1H-pyrazol-4-yl)-4-methoxypyrazolo[1,5-a]pyridine-3-carbonitrile] |
| 7.85 | COc1cc(-c2nnn(C3CCN(C(=O)C4(F)CN(C(=O)/C=C/CN(C)C)C4)CC3)c2C)cn2ncc(C#N)c12 [Example 164, (E)-6-(1-(1-(1-(4-(dimethylamino)but-2-enoyl)-3-fluoroazetidine-3-carbonyl)piperidin-4-yl)-5-methyl-1H-1,2,3-triazol-4-yl)-4-methoxypyrazolo [1,5-a]pyridine-3-carbonitrile] |
| 7.59 | CC#CC(=O)N1CC(F)(C(=O)N2CCC(n3ncc(-c4cc(OC)c5c(C#N)cnn5c4)c3C)CC2)C1 [Example 156, 6-(1-(1-(1-(but-2-ynoyl)-3-fluoroazetidine-3-carbonyl)piperidin-4-yl)-5-methyl-1H-pyrazol-4-yl)-4-methoxypyrazolo [1,5-a]pyridine-3-carbonitrile] |
| 7.66 | C=CC(=O)N1CC(C(=O)N2CCC3(CC2)CN(c2ccc(-c4cc(OC)c5c(C#N)cnn5c4)cn2)C3)C1 [Example 102, 6-(6-(7-(1-acryloylazetidine-3-carbonyl)-2,7-diazaspiro[3.5]nonan-2-yl)pyridin-3-yl)-4-methoxypyrazolo[1,5-a]pyridine-3-carbonitrile] |

Second part, the compound before the results:

| Structure (SMILES) | pIC50 |
| --- | --- |
| COc1cc(-c2cnn(C3CCN(C(=O)C4CN(C(=O)C5=CCC5)C4)CC3)c2)cn2ncc(C#N)c12 [Example 137, 6-(1-(1-(1-(cyclobut-1-ene-1-carbonyl)azetidine-3-carbonyl)piperidin-4-yl)-1H-pyrazol-4-yl)-4-methoxypyrazolo[1,5-a]pyridine-3-carbonitrile] | 7.82 |
| C=CC(=O)N1CC(OC)(C(=O)N2CCC(n3nc(C)c(-c4cc(OC)c5c(C#N)cnn5c4)c3C)CC2)C1 [Example 95, 6-(1-(1-(1-acryloyl-3-methoxyazetidine-3-carbonyl)piperidin-4-yl)-3,5-dimethyl-1H-pyrazol-4-yl)-4-methoxypyrazolo[1,5-a]pyridine-3-carbonitrile] | 6.81 |
| COc1cc(-c2cnn(C3CCN(C(=O)C4(OC)CN(C(=O)/C=C/CN(C)C)C4)CC3)c2C)cn2ncc(C#N)c12 [Example 158, (E)-6-(1-(1-(1-(4-(dimethylamino)but-2-enoyl)-3-methoxyazetidine-3-carbonyl)piperidin-4-yl)-5-methyl-1H-pyrazol-4-yl)-4-methoxypyrazolo [1,5-a]pyridine-3-carbonitrile] | 8.10 |
| C=CC(=O)N1CC(C(=O)N2CC3CC(C2)N3c2ccc(-c3cc(OC)c4c(C#N)cnn4c3)cn2)C1 [Example 105, 6-(6-(3-(1-acryloylazetidine-3-carbonyl)-3,6-diazabicyclo[3.1.1]heptan-6-yl)pyridin-3-yl)-4-methoxypyrazolo[1,5-a]pyridine-3-carbonitrile] | 6.65 |
| COc1cc(-c2cnn(C3CCN(CC4(OC)CN(C(=O)/C=C/CN(C)C)C4)CC3)c2C)cn2ncc(C#N)c12 [Example 159, (E)-6-(1-(1-((1-(4-(dimethylamino)but-2-enoyl)-3-methoxyazetidin-3-yl)methyl)piperidin-4-yl)-5-methyl-1H-pyrazol-4-yl)-4-methoxypyrazolo [1,5-a]pyridine-3-carbonitrile] | 7.62 |
| COc1cc(-c2cnn(C3CCN(C(=O)C4CN(C(=O)/C=C/CN(C)C)C4)CC3)c2C)cn2ncc(C#N)c12 [Example 152, (E)-6-(1-(1-(1-(4-(dimethylamino)but-2-enoyl)azetidine-3-carbonyl)piperidin-4-yl)-5-methyl-1H-pyrazol-4-yl)-4-methoxypyrazolo [1,5-a]pyridine-3-carbonitrile] | 7.31 |
| C=CC(=O)N1CCN(C(=O)N2CCC(n3cc(-c4cc(OC)c5c(C#N)cnn5c4)cn3)CC2)C[C@@H]1CC#N [Example 135, (S)-6-(1-(1-(4-acryloyl-3-(cyanomethyl)piperazine-1-carbonyl)piperidin-4-yl)-1H-pyrazol-4-yl)-4-methoxypyrazolo[1,5-a]pyridine-3-carbonitrile] | 7.89 |
| C=CC(=O)N1CC(OC)(C(=O)N2CCC(n3ncc(-c4cc(OC)c5c(Cl)cnn5c4)c3C)CC2)C1 [Example 117, 1-(3-(4-(4-(3-chloro-4-methoxypyrazolo[1,5-a]pyridin-6-yl)-5-methyl-1H-pyrazol-1-yl)piperidine-1-carbonyl)-3-methoxyazetidin-1-yl)prop-2-en-1-one] | 6.99 |
| COc1cc(-c2cnn(C3CCN(C(=O)C4(C)CN(C(=O)/C=C/CN(C)C)C4)CC3)c2C)cn2ncc(C#N)c12 [Example 157, (E)-6-(1-(1-(1-(4-(dimethylamino)but-2-enoyl)-3-methylazetidine-3-carbonyl)piperidin-4-yl)-5-methyl-1H-pyrazol-4-yl)-4-methoxypyrazolo [1,5-a]pyridine-3-carbonitrile] | 8.22 |
| COc1cc(-c2cnn(C3CCN(C(=O)C4(F)CN(C(=O)/C=C/CN(C)C)C4)CC3)c2C)cn2ncc(Cl)c12 [Example 170, (E)-1-(3-(4-(4-(3-chloro-4-methoxypyrazolo [1,5-a]pyridin-6-yl)-5-methyl-1H-pyrazol-1-yl)piperidine-1-carbonyl)-3-fluoroazetidin-1-yl)-4-(dimethylamino)but-2-en-1-one] | 7.66 |
| CCc1c(-c2cc(OC)c3c(C#N)cnn3c2)cnn1C1CCN(C(=O)C2(F)CN(C(=O)/C=C/CN(C)C)C2)CC1 [Example 162, (E)-6-(1-(1-(1-(4-(dimethylamino)but-2-enoyl)-3-fluoroazetidine-3-carbonyl)piperidin-4-yl)-5-ethyl-1H-pyrazol-4-yl)-4-methoxypyrazolo [1,5-a]pyridine-3-carbonitrile] | 6.34 |
| C=CC(=O)N1CC(CN2CCC(n3ncc(-c4cc(OC)c5c(C#N)cnn5c4)c3C)CC2)C1(C)C (stereo not drawn) [Example 151, 6-(1-(1-((1-acryloyl-2,2-dimethylazetidin-3-yl)methyl)piperidin-4-yl)-5-methyl-1H-pyrazol-4-yl)-4-methoxypyrazolo [1,5-a]pyridine-3-carbonitrile] | 7.42 |
| C=CC(=O)N1CC(C(=O)N2C[C@@H]3C[C@H]2CN3c2ccc(-c3cc(OC)c4c(C#N)cnn4c3)cn2)C1 [Example 106, 6-(6-((1S,4S)-5-(1-acryloylazetidine-3-carbonyl)-2,5-diazabicyclo[2.2.1]heptan-2-yl)pyridin-3-yl)-4-methoxypyrazolo[1,5-a]pyridine-3-carbonitrile] | 7.52 |
| COc1cc(-c2c(C)nn(C3CCN(C(=O)C4(F)CN(C(=O)/C=C/CN(C)C)C4)CC3)c2C)cn2ncc(C#N)c12 [Example 161, (E)-6-(1-(1-(1-(4-(dimethylamino)but-2-enoyl)-3-fluoroazetidine-3-carbonyl)piperidin-4-yl)-3,5-dimethyl-1H-pyrazol-4-yl)-4-methoxypyrazolo [1,5-a]pyridine-3-carbonitrile] | 7.36 |
| COc1cc(-c2cnn(C3CCN(C(=O)C4(F)CN(C(=O)/C=C/CN(C)C)C4)CC3)c2C)cn2ncc(C#N)c12 [Example 153, (E)-6-(1-(1-(1-(4-(dimethylamino)but-2-enoyl)-3-fluoroazetidine-3-carbonyl)piperidin-4-yl)-5-methyl-1H-pyrazol-4-yl)-4-methoxypyrazolo [1,5-a]pyridine-3-carbonitrile] | 7.96 |
